# Experimental data taken from ChEMBL document CHEMBL1201862, “PubChem BioAssay data set” (2004).
#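 Step 1: Grow cells in 96-well plates. Step 2: Expose to compound for 48 hours at 5 concentrations. Step 3: Interpolate endpoints linearly; if unreached, use highest concentration. At the GI50, growth is halved.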 Active and inactive are the calls of the source. No stated cut-off is given here; in the data, active = GI50 up to about 1.1 µM and inactive = higher.
# Tests used:
# Assay in all cases: inhibition of tumour cell growth, NCI panel, 48 h
# RXF 393 = tested on: RXF 393
# CAKI-1 = tested on: CAKI-1
# SW-620 = tested on: SW-620
# MDA-N = tested on: MDA-N
# HOP-92 = tested on: HOP-92
# HCC 2998 = tested on: HCC 2998
# EKVX = tested on: EKVX
# A549 = tested on: A549
# NCI-H460 = tested on: NCI-H460
# HT-29 = tested on: HT-29
# 786-0 = tested on: 786-0
# NCI-H522 = tested on: NCI-H522
# OVCAR-3 = tested on: OVCAR-3
# T47D = tested on: T47D
# UACC-257 = tested on: UACC-257
# SK-MEL-28 = tested on: SK-MEL-28
# OVCAR-8 = tested on: OVCAR-8
# SF-539 = tested on: SF-539
# SF-295 = tested on: SF-295
# NCI-H226 = tested on: NCI-H226
# M14 = tested on: M14
# A498 = tested on: A498
# Malme-3M = tested on: Malme-3M
# SNB-19 = tested on: SNB-19
# UACC-62 = tested on: UACC-62
# HCT-116 = tested on: HCT-116
# U-251 = tested on: U-251
# DU-145 = tested on: DU-145
# OVCAR-5 = tested on: OVCAR-5
# IGROV-1 = tested on: IGROV-1
# MDA-MB-435 = tested on: MDA-MB-435
# SF-268 = tested on: SF-268
# KM12 = tested on: KM12
# NCI-H23 = tested on: NCI-H23
# HCT-15 = tested on: HCT-15
# HOP-62 = tested on: HOP-62
# K562 = tested on: K562
# SK-MEL-2 = tested on: SK-MEL-2
# MCF7 = tested on: MCF7
# SNB-75 = tested on: SNB-75
# CCRF-CEM = tested on: CCRF-CEM
# NCI/ADR-RES = tested on: NCI/ADR-RES
# MOLT-4 = tested on: MOLT-4
# Hs-578T = tested on: Hs-578T
# PC-3 = tested on: PC-3
# MDA-MB-231 = tested on: MDA-MB-231
# COLO 205 = tested on: COLO 205
# ACHN = tested on: ACHN
# TK-10 = tested on: TK-10
# SK-MEL-5 = tested on: SK-MEL-5
# SK-OV-3 = tested on: SK-OV-3
# OVCAR-4 = tested on: OVCAR-4
# SN12C = tested on: SN12C
# SR = tested on: SR
# LOX IMVI = tested on: LOX IMVI
smiles,measurement,setting,value
COc1cc2c(cc1OC)C1Cc3ccccc3CN1CCC2 (stereo not given),GI50,RXF 393,> 100 µM (inactive)
same,GI50,CAKI-1,> 100 µM (inactive)
same,GI50,SW-620,> 100 µM (inactive)
same,GI50,MDA-N,45 µM (inactive)
same,GI50,HOP-92,92.9 µM (inactive)
same,GI50,HCC 2998,> 100 µM (inactive)
same,GI50,EKVX,> 100 µM (inactive)
same,GI50,A549,> 100 µM (inactive)
same,GI50,NCI-H460,> 100 µM (inactive)
same,GI50,HT-29,66.8 µM (inactive)
same,GI50,786-0,> 100 µM (inactive)
same,GI50,NCI-H522,> 100 µM (inactive)
same,GI50,OVCAR-3,> 100 µM (inactive)
same,GI50,T47D,63.7 µM (inactive)
same,GI50,UACC-257,> 100 µM (inactive)
same,GI50,SK-MEL-28,> 100 µM (inactive)
same,GI50,OVCAR-8,> 100 µM (inactive)
same,GI50,SF-539,> 100 µM (inactive)
same,GI50,SF-295,> 100 µM (inactive)
same,GI50,NCI-H226,90.6 µM (inactive)
same,GI50,M14,93.5 µM (inactive)
same,GI50,A498,97.7 µM (inactive)
same,GI50,Malme-3M,> 100 µM (inactive)
same,GI50,SNB-19,> 100 µM (inactive)
same,GI50,UACC-62,> 100 µM (inactive)
same,GI50,HCT-116,91.6 µM (inactive)
same,GI50,U-251,> 100 µM (inactive)
same,GI50,DU-145,> 100 µM (inactive)
same,GI50,OVCAR-5,> 100 µM (inactive)
same,GI50,IGROV-1,> 100 µM (inactive)
same,GI50,MDA-MB-435,47.6 µM (inactive)
same,GI50,SF-268,> 100 µM (inactive)
same,GI50,KM12,> 100 µM (inactive)
same,GI50,NCI-H23,> 100 µM (inactive)
same,GI50,HCT-15,> 100 µM
same,GI50,HOP-62,> 100 µM (inactive)
same,GI50,K562,50 µM (inactive)
same,GI50,SK-MEL-2,> 100 µM (inactive)
same,GI50,MCF7,> 100 µM (inactive)
same,GI50,SNB-75,37.6 µM (inactive)
same,GI50,CCRF-CEM,46.9 µM (inactive)
same,GI50,NCI/ADR-RES,> 100 µM (inactive)
same,GI50,MOLT-4,67.6 µM (inactive)
same,GI50,Hs-578T,93.1 µM (inactive)
same,GI50,PC-3,> 100 µM (inactive)
same,GI50,MDA-MB-231,> 100 µM (inactive)
same,GI50,COLO 205,> 100 µM (inactive)
same,GI50,ACHN,> 100 µM (inactive)
same,GI50,TK-10,> 100 µM (inactive)
same,GI50,SK-MEL-5,> 100 µM (inactive)
same,GI50,SK-OV-3,> 100 µM (inactive)
same,GI50,OVCAR-4,88.3 µM (inactive)
same,GI50,SN12C,> 100 µM (inactive)
same,GI50,SR,> 100 µM (inactive)
same,GI50,LOX IMVI,> 100 µM (inactive)
